“Also recorded” adds a separate entry of the source. Marks after values point to notes of the source that are not given here.
Assays:
[1] = set-up: species or system human; conditions: in vivo
Description: (§1) A study was undertaken to evaluate the effectiveness of the composition of the present invention and its effect on the patients. Thirty-seven healthy non-smoking post-menopausal women (50˜70 yr) were randomly assigned to one of 5 groups, to take a daily dose of mixed carotenoids (β-carotene, lutein and lycopene, 4 mg each), or 12 mg of single carotenoid (β-carotene, lutein or lycopene), or placebo for 8 weeks. Plasma carotenoid concentrations were analyzed by an HPLC system with a C30 column, and lymphocyte DNA damage was determined by a single cell gel electrophoresis (comet) assay.
Subjects (50-70 yr, n=37) were housed at the MRU for the first two days of the study. On the first day of the study, subjects were randomly assigned to take either 1) placebo, 2) 4 mg each of lutein, β-carotene and lycopene, 3) 4 mg of lutein, 4) 4 mg of β-carotene, or 5) 4 mg of lycopene with a meal containing 25 g of fat. Subjects were provided with a two-week supply of placebo or carotenoids along with instructions how to consume the supplements while being maintained with a low carotenoid diet on each sampling day (days 1, 15, 29 & 43). In particular, they were instructed to take the carotenoid supplements with their first meal of the day, and this food source should include 10 g of fat to insure maximum absorption of the carotenoid supplement. 10 mL of blood will be drawn at 0 (fasting), 2, 4, 6, 8, 10, 12 and 14 hours after the carotenoid dose to obtain information on the early kinetics of carotenoid absorption and tissue uptake. The subjects had the option to have an intravenous line inserted for blood drawing (I.V.). If they chose this option, 12 mL of blood was drawn for each sample and the first 2 mL of blood was discarded. Chylomicrons (the triglyceride-rich fraction of plasma) were isolated and analyzed for carotenoids to determine the plasma response kinetics in these 14 hr samples. Thereafter, subjects were discharged from the HNRC with a two-week supply of placebo or carotenoids along with instructions on how to consume the doses while being maintained on a low carotenoid diet.
(§2) From the second day of intervention, subjects took either 1) placebo, 2) 4 mg of lutein, 4 mg of β-carotene and 4 mg of lycopene, 3) 12 mg of lutein, 4) 12 mg of β-carotene, or 5) 12 mg of lycopene. On study days 15, 29, 43, and 57, overnight fasting bloods (10 mL) were collected, and 1) plasma carotenoids, 2) antioxidant capacity in both the aqueous and lipid compartments, 3) lipid peroxidation, and 4) DNA damage will be measured in these samples. In addition, 70 mL of fasting blood was collected at days 1 and 57 for the analysis of gene expression profiling in peripheral blood mononuclear cells using high-density filter-based cDNA microarrays. On study day 57, an additional 3 ml of blood was collected to measure the hemoglobin level.
Plasma carotenoid concentrations were measured by a HPLC system as previously described with minor modification (Yeum K J et al. Am J Clin Nutr 1996; 64:594-602). Plasma sample (200 μL) was extracted with 2 mL of chloroform:methanol (2: 1) followed by 3 mL of hexane. Samples were dried under nitrogen and resuspended in 75 μL ethanol:methyl tert-butyl ether (2:1) of which 25 μL was injected onto the HPLC. The HPLC system consisted of a Waters 2695 Separation Module, 2996 Photodiode Array Detector, a Waters 2475 Multi X Fluorescence Detector, a C30 carotenoid column (3 μm, 150×3.0 mm, YMC, Wilmington, N.C.), and a Waters Millenium 32 data station. The mobile phase was methanol:methyl tert-butyl ether:water (85:12:3 with 1.5% ammonium acetate in water; […]) and methanol:methyl tert-butyl ether:water (8:90:2 with 1% ammonium acetate in water; […]). The gradient procedure has been reported earlier (Yeum K J et al. Am J Clin Nutr 1996; 64:594-602). Results were adjusted by an internal standard containing echinenone and retinyl acetate. The CV for interassay (n=25) is 4% and intra assay Is 4% (n=9). […]

lymphocyte DNA [2] = assay: Basal (endogenous) lymphocyte DNA damage, alkaline single cell gel electrophoresis (comet) assay; format: in vivo, human; conditions: for basal lymphocyte DNA damage: women 50-70 yr, mixed 4 mg each/d, single carotenoid 12 mg/d, Means ± SD; for basal DNA damage, percent of comet tail ratio (each day value divided by day 1): d 57, different from placebo p<0.005, FIG. 6; for basal (endogenous) DNA damage compared to day 1: day 15
Description: as §1, §2
(§3) DNA breaks and oxidized pyrimidine bases were measured using the alkaline comet assay (Duthie et al Cancer Res 1996; 56:1291-1295). The comet assay, also called the Single Cell Gel Assay, was used to detect DNA damage and repair at the level of single cells. The Comet Assay is a rapid, sensitive test for DNA damage detection (e.g., single- and double-strand breaks, oxidative-induced base damage, and DNA-DNA/DNA-protein cross linking) by electrophoresis. The Comet Assay involves the following steps: 1. Slide preparation (i.e., mixing of cells with low melting agarose, and spread over glass microscope slides); 2. Lysis: (i.e., lysis of cell membrane and other proteins); 3. Unwinding of DNA; 4. Electrophoresis; 5. Neutralization; and 6. Staining and scoring. Cells embedded in agarose on a microscope slide are lysed with non-ionic detergent and high salt, leaving supercoiled matrix-attached DNA in a nucleoid. Under alkaline electrophoresis, DNA with breaks extends towards the anode, forming a “comet tail” when viewed by fluorescence microscopy. The percentage of total fluorescence in the tail is linearly related to DNA break frequency up to about 2 per 10^9 daltons.
(§4) Lymphocyte separation: Lymphocytes were separated immediately after blood samples were collected. Lymphocytes were isolated by density gradient sedimentation (Histopaque 1077, Sigma diagnostic, St. Louis, USA) and frozen in 50% fetal calf serum, 40% culture medium (RPMI 1640, Sigma diagnostic, St. Louis, USA ) and 10% dimethyl sulfoxide to −-80° C. at −1° C./min freezing rate before store in liquid nitrogen.
(§5) Cryopreserved lymphocytes recovery: Cells were recovered by submerging in 37° C. water bath until last trace of ice has melted. Cells were transferred to prechilled 50% RPMI 1640 medium and 50% fetal calf serum and centrifuged at 200 g for 5 min at 4° C. Cells were resuspended in cold PBS and checked for viability (typically 95% viability) and cell number (typically 1×10^5 cells/mL). The lymphocytes of five time points (d1, 15, 29, 43 & 57) were recovered at the same time.
(§6) Alkaline single cell gel electrophoresis: DNA strand breaks were measured in lymphocytes with the alkaline single cell gel electrophoresis, comet assay, (Collins A R. Methods Mol Biol 2002; 203:163-77) with minor modifications. The endogenous DNA damage as well as hydrogen peroxide challenged DNA damage were determined by exposing the agarose embedded with cells to PBS or H2O2 in PBS (10 μM) for 10 min respectively.
(§7) Quantitation of DNA damage: The DNA damage was determined by visual image analysis (Collins A R et al. Methods Mol Biol 2002; 186:147-59). […]

lymphocyte DNA [3] = assay: Hydrogen peroxide induced lymphocyte DNA damage, comet assay; format: in vivo, human; conditions: for hydrogen peroxide induced lymphocyte DNA damage: DNA challenged with 10 μM H2O2 for 10 min, Means ± SD; for H2O2 induced DNA damage compared to day 1: after 56-day intervention (d 57), H2O2 10 micromolar for 10 min, p<0.05
Description: as §1, §2, §3, §4, §5, §6, §7

SMILES	plasma lycopene concentrations, change [1]	plasma β-carotene levels, change [1]	basal lymphocyte DNA damage (lymphocyte DNA [2]; Day 01 (baseline))	basal lymphocyte DNA damage (lymphocyte DNA [2]; Day 15)	basal lymphocyte DNA damage (lymphocyte DNA [2]; Day 29)	basal lymphocyte DNA damage (lymphocyte DNA [2]; Day 43)	basal lymphocyte DNA damage (lymphocyte DNA [2]; Day 57)	basal DNA damage, percent of comet tail ratio (each day value divided by day 1) (lymphocyte DNA [2])	hydrogen peroxide induced lymphocyte DNA damage (lymphocyte DNA [3]; Day 01 (baseline))	hydrogen peroxide induced lymphocyte DNA damage (lymphocyte DNA [3]; Day 15)	hydrogen peroxide induced lymphocyte DNA damage (lymphocyte DNA [3]; Day 29)	hydrogen peroxide induced lymphocyte DNA damage (lymphocyte DNA [3]; Day 43)	hydrogen peroxide induced lymphocyte DNA damage (lymphocyte DNA [3]; Day 57)	H2O2 induced DNA damage compared to day 1 (lymphocyte DNA [3])	plasma lutein levels, change [1]	basal (endogenous) DNA damage compared to day 1 (lymphocyte DNA [2])
CC1=C[C@H](O)CC(C)(C)[C@H]1/C=C/C(C)=C/C=C/C(C)=C/C=C/C=C(C)/C=C/C=C(C)/C=C/C1=C(C)C[C@@H](O)CC1(C)C [Lutein, lutein]	significantly lower levels	did not show any increase	10.6 ± 1.4%	9.4 ± 2.1%	9.5 ± 1.4%	7.7 ± 1.5^b %	7.1 ± 1.7*^c %	significantly decreased	42.8 ± 6.8%	43.5 ± 6.2%	43.1 ± 5.6%	41.5 ± 9.3%	39.8 ± 8.4^a %	did not show any significant change		
CC(C)=CCC/C(C)=C/C=C/C(C)=C/C=C/C(C)=C/C=C/C=C(C)/C=C/C=C(C)/C=C/C=C(\C)CCC=C(C)C [Lycopene, lycopene]	significantly increased	did not show any increase	11.9 ± 2.6 %	10.0 ± 3.5^a %	9.0 ± 2.6^a %	7.5 ± 1.9^b %	6.8 ± 1.6*^c %	significantly decreased	50.5 ± 8.9 %	49.2 ± 10.1%	51.1 ± 3.5 %	50.0 ± 6.5%	42.5 ± 6.5^b %	significantly improved; also recorded: significantly decreased	no increase	significantly decreased
CC1=C(/C=C/C(C)=C/C=C/C(C)=C/C=C/C=C(C)/C=C/C=C(C)/C=C/C2=C(C)CCCC2(C)C)C(C)(C)CCC1 [β-carotene]	significantly lower levels		12.4 ± 2.7 %	9.7 ± 2.4^b %	8.6 ± 2.9^a %	9.4 ± 2.4^a %	8.0 ± 1.8^b %	significantly decreased	48.2 ± 6.1%	44.5 ± 8.9%	41.1 ± 6.2%	44.2 ± 5.7%	38.0 ± 4.8%	significantly improved; also recorded: significantly decreased	no increase	significantly decreased

Reference: patent publication US20070082044A1, “Synergistic effect of compositions comprising carotenoids selected from lutein, beta-carotene and lycopene” (TRUSTEES OF TUFTS COLLEGE, priority 2004, published 2007)
